Measured values: patent publication US6110965A, “Ketolides from the class of 15-membered lactams” (PLIVA, farmaceutska, kemijska, prehrambena i kozmeticka …, priority 1998, dated 2000)
In brackets after ≈: the same amount, converted by molar mass. Like-named read-outs stand apart in the source and are kept apart here.

How the values were obtained:
[1] = tested on: Campylobacter fetus ATCC 19438; assay: Antibacterial in vitro action (MIC), microdilution process according to NCCLS; type: cell-based
[2] = tested on: Staphylococcus aureus ATCC 25923; assay: as above; type: cell-based
[3] = tested on: Moraxella catarrhalis ATCC 25238; assay: as above; type: cell-based
[4] = oral preparations; cited from earlier work
[5] = tested on: Staphylococcus epidermidis ATCC 12228; assay: Antibacterial in vitro action (MIC), microdilution process according to NCCLS; type: cell-based
[6] = tested on: Clostridium perfringens ATCC 13124; assay: microbe, parasite or virus in culture; type: cell-based; conditions: ATCC13124, read-out: Antibacterial in vitro action (MIC, mg/l)
[7] = tested on: Campylobacter jejuni ATCC 33291; assay: Antibacterial in vitro action (MIC), microdilution process according to NCCLS; type: cell-based
[8] = tested on: Pseudomonas aeruginosa ATCC 25619; assay: as above; type: cell-based
[9] = tested on: Citroobacter freundii ATCC 8090; assay: as above; type: cell-based; conditions: read-out: Antibacterial in vitro action (MIC, mg/l)
[10] = tested on: Streptococcus pneumoniae ATCC 6305; assay: as above; type: cell-based
[11] = tested on: Haemophilus influenzae ATCC 49766; assay: as above; type: cell-based
[12] = tested on: Yersinia enterocolitica ATCC 9610; assay: as above; type: cell-based
[13] = tested on: Escherichia coli ATCC 25922; assay: as above; type: cell-based; conditions: ATCC25922, read-out: Antibacterial in vitro action (MIC, mg/l)
[14] = tested on: Shigella flexneri ATCC 12022; assay: as above; type: cell-based; conditions: ATCC12022, read-out: Antibacterial in vitro action (MIC, mg/l)
Procedure: Antibacterial in vitro action of the new compounds of the general formula (I), wherein A, B, R^1, R^2 and R^3 have the above-mentioned meanings, and of their pharmaceutically acceptable addition salts with inorganic or organic acids was determined on a series of standard test microorganisms and clinical isolates by microdilution process according to the protocol NCCLS (The National Commitee for Clinical Laboratory Standards, Document M7-A2, Vol. 10, No. 8, 1990 and Document M11-A2, Vol. 10, 15,1991). The control of the laboratory process was performed by means of control strain Staphyloccocus aureus ATTC 29213 (The American Type Culture Collection) according to protocol NCCLS (Document M7-A2, Table 3, M100-S4).
The antibacterial in vitro action on a series of standard test microorganisms for 6-O-methyl-8a-aza-8a-homoerythromycin A from Example 3 in comparison with azithromycin, erythromycin and clarithromycin is represented in Table 1.

[15] = tested on: Salmonella choleraesuis ATCC 13076; assay: as above; type: cell-based; conditions: Salmonella enterica, read-out: Antibacterial in vitro action (MIC, mg/l)
[16] = tested on: Enterococcus faecalis ATCC 35550; assay: as above; type: cell-based
[17] = tested on: Proteus mirabilis ATCC 43071; assay: as above; type: cell-based
[18] = tested on: Streptococcus pyogenes ATCC 19615; assay: as above; type: cell-based
[19] = tested on: Listeria monocytogenes ATCC 7644; assay: as above; type: cell-based
[20] = tested on: Haemophilus influenzae ATCC 49247; assay: as above; type: cell-based
[21] = tested on: Proteus mirabilis ATCC 12453; assay: as above; type: cell-based
[22] = in vivo; cited from earlier work
gram-negative bacteria = conditions: cited from earlier work
human phagocyte cells = conditions: cited from earlier work
[23] = compared to erythromycin A; cited from earlier work
[24] = tested on: gram-positive bacterial strains; conditions: compared to erythromycin A; cited from earlier work
[25] = Campylobacter fetus, ATCC19438, read-out: Antibacterial in vitro action (MIC, mg/l)
[26] = Moraxella catarrhalis, ATCC25238, read-out: Antibacterial in vitro action (MIC, mg/l)
[27] = Campylobacter jejuni, ATCC33291, read-out: Antibacterial in vitro action (MIC, mg/l)
[28] = Streptococcus pneumoniae, ATCC6305, read-out: Antibacterial in vitro action (MIC, mg/l)
[29] = Streptococcus pyogenes, ATCC19615, read-out: Antibacterial in vitro action (MIC, mg/l)
[30] = Listeria monocytogenes, ATCC7644, read-out: Antibacterial in vitro action (MIC, mg/l)
[31] = ATCC25923, Staphylococcus aureus ATCC 25923, read-out: Antibacterial in vitro action (MIC, mg/l)
[32] = ATCC12228, Staphylococcus epidermidis ATCC 12228, read-out: Antibacterial in vitro action (MIC, mg/l)
[33] = ATCC25619, Pseudomonas aeruginosa ATCC 25619, read-out: Antibacterial in vitro action (MIC, mg/l)
[34] = Citroobacter freundii ATCC 8090
[35] = ATCC49766, Haemophilus influenzae ATCC 49766, read-out: Antibacterial in vitro action (MIC, mg/l)
[36] = ATCC9610, Yersinia enterocolitica ATCC 9610, read-out: Antibacterial in vitro action (MIC, mg/l)
[37] = Salmonella choleraesuis ATCC 13076
[38] = ATCC35550, Enterococcus faecalis ATCC 35550, read-out: Antibacterial in vitro action (MIC, mg/l)
[39] = ATCC43071, Proteus mirabilis ATCC 43071, read-out: Antibacterial in vitro action (MIC, mg/l)
[40] = ATCC49247, Haemophilus influenzae ATCC 49247, read-out: Antibacterial in vitro action (MIC, mg/l)
[41] = ATCC12453, Proteus mirabilis ATCC 12453, read-out: Antibacterial in vitro action (MIC, mg/l)

| SMILES | MIC [1, 25] | MIC [3, 26] | MIC [6] | MIC [7, 27] | MIC [10, 28] | MIC [13] | MIC [14] | MIC [18, 29] | MIC [19, 30] | MIC [2, 31] | MIC [5, 32] | MIC [8, 33] | MIC [9, 34] | MIC [11, 35] | MIC [12, 36] | MIC [15, 37] | MIC [16, 38] | MIC [17, 39] | MIC [20, 40] | MIC [21, 41] | also measured |
| --- | --- | --- | --- | --- | --- | --- | --- | --- | --- | --- | --- | --- | --- | --- | --- | --- | --- | --- | --- | --- | --- |
| CC[C@H]1OC(=O)[C@H](C)[C@@H](O[C@H]2C[C@@](C)(OC)[C@@H](O)[C@H](C)O2)[C@H](C)[C@@H](O[C@@H]2O[C@H](C)C[C@H](N(C)C)[C@H]2O)[C@](C)(O)C[C@@H](C)C(=O)[C@H](C)[C@@H](O)[C@]1(C)O [Er, erythromycin A] | < 0.125 mg/L | < 0.125 mg/L | 0.5 mg/L (≈ 0.681 µM) | < 0.125 mg/L | < 0.125 mg/L | 32 mg/L (≈ 43.6 µM) | 32 mg/L (≈ 43.6 µM) | < 0.125 mg/L | < 0.125 mg/L |  |  |  |  |  |  |  |  |  |  |  | MIC ([2]; Staphylococcus aureus, ATCC25923, read-out: Antibacterial in vitro action (MIC, mg/l)): 0.25 mg/L (≈ 0.341 µM); gastric intolerance [4]: gastric intolerance in many patients; MIC ([5]; Staphylococcus epidermidis, ATCC12228, read-out: Antibacterial in vitro action (MIC, mg/l)): 0.25 mg/L (≈ 0.341 µM); MIC ([8]; Pseudomonas aeruginosa, ATCC25619, read-out: Antibacterial in vitro action (MIC, mg/l)): > 128 mg/L; MIC [9]: 64 mg/L (≈ 87.2 µM); MIC ([11]; Haemophilus influenzae, ATCC49766, read-out: Antibacterial in vitro action (MIC, mg/l)): 4 mg/L (≈ 5.45 µM); MIC ([12]; Yersinia enterocolitica, ATCC9610, read-out: Antibacterial in vitro action (MIC, mg/l)): 16 mg/L (≈ 21.8 µM); MIC [15]: 64 mg/L (≈ 87.2 µM); MIC ([16]; Enterococcus faecalis, ATCC35550, read-out: Antibacterial in vitro action (MIC, mg/l)): 1 mg/L (≈ 1.36 µM); MIC ([17]; Proteus mirabilis, ATCC43071, read-out: Antibacterial in vitro action (MIC, mg/l)): > 128 mg/L; MIC ([20]; Haemophilus influenzae, ATCC49247, read-out: Antibacterial in vitro action (MIC, mg/l)): 2 mg/L (≈ 2.73 µM); MIC ([21]; Proteus mirabilis, ATCC12453, read-out: Antibacterial in vitro action (MIC, mg/l)): > 128 mg/L |
| CC[C@H]1OC(=O)[C@H](C)[C@@H](O[C@H]2C[C@@](C)(OC)[C@@H](O)[C@H](C)O2)[C@H](C)[C@@H](O[C@@H]2O[C@H](C)C[C@H](N(C)C)[C@H]2O)[C@](C)(OC)C[C@@H](C)NC(=O)[C@H](C)[C@@H](O)[C@]1(C)O [Example 3, 6-O-methyl-8a-aza-8a-homoerythromycin A] |  |  | 0.25 mg/L (≈ 0.328 µM) |  |  | 8 mg/L (≈ 10.5 µM) | 4 mg/L (≈ 5.24 µM) |  |  | 0.5 mg/L (≈ 0.655 µM) | 0.5 mg/L (≈ 0.655 µM) | 32 mg/L (≈ 41.9 µM) | 16 mg/L (≈ 21 µM) | 1 mg/L (≈ 1.31 µM) | 4 mg/L (≈ 5.24 µM) | 8 mg/L (≈ 10.5 µM) | 1 mg/L (≈ 1.31 µM) | 32 mg/L (≈ 41.9 µM) | 1 mg/L (≈ 1.31 µM) | 32 mg/L (≈ 41.9 µM) | MIC ([1]; ATCC19438, Campylobacter fetus ATCC 19438, read-out: Antibacterial in vitro action (MIC, mg/l)): < 0.125 mg/L; MIC ([3]; ATCC25238, Moraxella catarrhalis ATCC 25238, read-out: Antibacterial in vitro action (MIC, mg/l)): < 0.125 mg/L; MIC ([7]; ATCC33291, Campylobacter jejuni ATCC 33291, read-out: Antibacterial in vitro action (MIC, mg/l)): < 0.125 mg/L; MIC ([10]; ATCC6305, Streptococcus pneumoniae ATCC 6305, read-out: Antibacterial in vitro action (MIC, mg/l)): < 0.125 mg/L; MIC ([18]; ATCC19615, Streptococcus pyogenes ATCC 19615, read-out: Antibacterial in vitro action (MIC, mg/l)): < 0.125 mg/L; MIC ([19]; ATCC7644, Listeria monocytogenes ATCC 7644, read-out: Antibacterial in vitro action (MIC, mg/l)): < 0.125 mg/L |
| CC[C@H]1OC(=O)[C@H](C)[C@@H](O[C@H]2C[C@@](C)(OC)[C@@H](O)[C@H](C)O2)[C@H](C)[C@@H](O[C@@H]2O[C@H](C)C[C@H](N(C)C)[C@H]2O)[C@](C)(O)C[C@@H](C)CN(C)[C@H](C)[C@@H](O)[C@]1(C)O [Az, 9-deoxo-9a-methyl-9a-aza-9a-homoerythromycin A] | < 0.125 mg/L | < 0.125 mg/L | 0.125 mg/L (≈ 0.167 µM) | < 0.125 mg/L | < 0.125 mg/L | 2 mg/L (≈ 2.67 µM) | 1 mg/L (≈ 1.34 µM) | < 0.125 mg/L | < 0.125 mg/L | 0.5 mg/L (≈ 0.668 µM) | 1 mg/L (≈ 1.34 µM) | 64 mg/L (≈ 85.4 µM) | 4 mg/L (≈ 5.34 µM) | 1 mg/L (≈ 1.34 µM) | 1 mg/L (≈ 1.34 µM) | 2 mg/L (≈ 2.67 µM) | 0.5 mg/L (≈ 0.668 µM) | 64 mg/L (≈ 85.4 µM) | 0.5 mg/L (≈ 0.668 µM) | 64 mg/L (≈ 85.4 µM) | biological half-time [22]: long biological half-time; antimicrobial spectrum (gram-negative bacteria): broad antimicrobial spectrum including gram-negative bacteria; penetration and accumulation within human phagocyte cells (human phagocyte cells): able to penetrate and to accumulate within human phagocyte cells |
| CC[C@H]1OC(=O)[C@H](C)[C@@H](O[C@H]2C[C@@](C)(OC)[C@@H](O)[C@H](C)O2)[C@H](C)[C@@H](O[C@@H]2O[C@H](C)C[C@H](N(C)C)[C@H]2O)[C@](C)(OC)C[C@@H](C)C(=O)[C@H](C)[C@@H](O)[C@]1(C)O [Cl, 6-O-methyl-erythromycin A] | < 0.125 mg/L | < 0.125 mg/L | 0.125 mg/L (≈ 0.167 µM) | < 0.125 mg/L | < 0.125 mg/L | 32 mg/L (≈ 42.8 µM) | 32 mg/L (≈ 42.8 µM) | < 0.125 mg/L | < 0.125 mg/L | 0.5 mg/L (≈ 0.668 µM) | 0.25 mg/L (≈ 0.334 µM) | > 128 mg/L | 64 mg/L (≈ 85.6 µM) | 8 mg/L (≈ 10.7 µM) | 16 mg/L (≈ 21.4 µM) | 32 mg/L (≈ 42.8 µM) | 0.25 mg/L (≈ 0.334 µM) | > 128 mg/L | 4 mg/L (≈ 5.35 µM) | 128 mg/L (≈ 171 µM) | stability in acidic medium [23]: considerably more stable in acidic medium; in vitro activity against gram-positive bacterial strains [24]: increased in vitro activity against gram-positive bacterial strains |
